pEC50: −log10 of the molar value. Where two headings read alike, the source gives them in different places.
Experiments:
Wild Type HBV = experiment: HBV replicative intermediates in vitro, wild type HBV; conditions: Hepatitis B virus, read-out: EC50 for intracellular HBV replicative intermediates (HBV R.I.), Wild Type
VZV = VZV CPE assay in HFF cells; format: cell-based; conditions: Human alphaherpesvirus 3
EBV = EBV Elisa assay in Daudi cells; format: cell-based; conditions: human gammaherpesvirus 4, Daudi, read-out: EBV EC50
HIV-tLal = format: cell-based; conditions: Human immunodeficiency virus 1, MT2, read-out: HIV-1 EC50
HSV-1 = format: cell-based; conditions: Human alphaherpesvirus 1, MRC5, DNA reduction assay in MRC-5 cells
HCMV = experiment: Antiviral activity against human CMV in vitro; conditions: for pEC50: Human betaherpesvirus 5, read-out: EC50 HCMV; for EC90: Human betaherpesvirus 5, read-out: EC90 HCMV
MCMV = experiment: Antiviral activity against murine CMV in vitro; conditions: in Mus musculus; for pEC50: read-out: EC50 MCMV; for EC90: read-out: EC90 MCMV
in vitro [1] = experiment: in vitro
in vitro [2] = experiment: in vitro; remark: listed apart in the source
[3] = Hepatitis B virus, read-out: HBV EC50, DNA reduction assay in 2.2.15 cells
[4] = read-out: HBV EC50, DNA reduction assay in 2.2.15 cells

Structure (SMILES) | pEC50 (VZV) | pEC50 (HIV-tLal) | pEC50 (HSV-1) | pEC50 (HBV; [3]) | also measured
CCCCCCCCCCCCCCCCOCCCOP(=O)(O)CC/C=C\Cn1cnc2c(N)ncnc21 [HDP-PPen-A] | < 4.22 | < 5.00 | 4.75 | 5.96 | pEC50 (Wild Type HBV): 5.04; pEC50 (EBV): 7.00; pEC50 (HBV; [4]): 5.70
CCCCCCCCCCCCCCCCOCCCOP(=O)(O)CC/C=C\Cn1ccc(N)nc1=O [HDP-PPen-C, (3Z)-3-(hexadecyloxy)propyl hydrogen 5-(4-amino-2-oxopyrimidin-1(2H)-yl)pent-3-enylphosphonate] |  | 5.60 | 5.33 |  | 
CCCCCCCCCCCCCCCCOCCCOP(=O)(O)CC/C=C\Cn1cnc2c(=O)[nH]c(N)nc21 [HDP-PPen-G, (Z)-3-(hexadecyloxy)propyl hydrogen 5-(2-amino-6-oxo-1,6-dihydropurin-9-yl)pent-3-enylphosphonate] | 6.82 | < 5.00 |  | 5.62 | pEC50 (Wild Type HBV): 5.06; pEC50 (EBV): 4.32; pEC50 (HBV; [4]): 5.60
CCCCCCCCCCCCCCCCOCCCOP(=O)(O)CC/C=C\Cn1cc(C)c(=O)[nH]c1=O [HDP-PPen-T] |  | 6.00 | 6.05 |  | 
CCCCCCCCCCCCCCCCOCCCOP(=O)(O)CC/C=C\Cn1ccc(=O)[nH]c1=O [HDP-PPen-U, (3Z)-3-(hexadecyloxy)propyl hydrogen 5-(3,4-dihydro-2,4-dioxopyrimidin-1(2H)-yl)pent-3-enylphosphonate] |  | < 5.00 | < 4.52 | < 4.52 | 
CCCCCCCCCCCCCCCCCCOCCOP(=O)(O)CC/C=C\Cn1cnc2c(=O)[nH]c(N)nc21 [ODE-PPen-G, (Z)-2-(octadecyloxy)ethyl hydrogen 5-(2-amino-6-oxo-1,6-dihydropurin-9-yl)pent-3-enylphosphonate] |  |  | 5.34 |  | pEC50 (HCMV): 6.77; EC90 (HCMV): 0.81 µM; pEC50 (MCMV): 8.40; EC90 (MCMV): 0.03 µM
CCCCCCCC/C=C\CCCCCCCCOCCOP(=O)(O)CC/C=C\Cn1cnc2c(=O)[nH]c(N)nc21 [OLE-PPen-G, (Z)-2-(octadec-9-enyloxy)ethyl hydrogen 5-(2-amino-6-oxo-1,6-dihydropurin-9-yl)pent-3-enylphosphonate] |  |  | 6.17 |  | CC50 (in vitro [1]): > 1 µM; pEC50 (HCMV): 6.33; EC90 (HCMV): 0.89 µM; CC50 (in vitro [2]): > 1 µM; pEC50 (MCMV): 7.55; EC90 (MCMV): 0.12 µM
Nc1ncnc2c1ncn2CC=CCCP(=O)(O)O [PPen-A, 9-(5-Phosphono-pent-2-en-1-yl)-adenine] | < 3.52 | < 4.00 | < 4.52 | < 4.52 | pEC50 (EBV): < 5.40
Nc1ccn(CC=CCCP(=O)(O)O)c(=O)n1 [PPen-C, 1-(5-Phosphono-pent-2-en-1-yl)cytosine] | < 4.22 | < 4.00 | < 4.52 | < 4.52 | 
Nc1nc2c(ncn2CC=CCCP(=O)(O)O)c(=O)[nH]1 [PPen-G, 9-(5-Phosphono-pent-2-en-1-yl)-guanine] | 5.14 | < 4.00 | < 4.52 | < 4.52 | 
Cc1cn(CC=CCCP(=O)(O)O)c(=O)[nH]c1=O [PPen-T, 1-(5-Phosphono-pent-2-en-1-yl)-thymine] | < 3.52 | < 4.00 | < 4.52 | < 4.52 | 
O=c1ccn(CC=CCCP(=O)(O)O)c(=O)[nH]1 [PPen-U, 1-(5-Phosphono-pent-2-en-1-yl)-uracil] | < 3.52 | < 4.00 | < 4.52 | < 4.52 | 

Source: patent US8222257B2, “Phosphono-pent-2-en-1-yl nucleosides and analogs” (The Regents of the University of California, priority 2005, dated 2012)
